Results as given in patent US10034886B2, “GLP-1 receptor modulators” (Celgene International II SÀRL, priority 2014, dated 2018).
Read-outs that look alike come from different tables or passages of the source.

Target: T1, GLP-1R (Homo sapiens, UniProt P43220)
T1 construct: host or cells: GLP-1R CRE-bla CHO-K1 cells
Assay: EC20 GLP-1(9-36) PAM cAMP assay: dose response of compound in the presence of fixed concentration of GLP-1(9-36)
Assay type: cell-based
Details: GLP-1R CRE-bla CHO-K1 cells, read-out: EC20 GLP-1(9-36) PAM EC50
Procedure, shortened: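 Positive allosteric modulation read as cAMP accumulation: compound titrations (12 points) combined with an EC20 level of GLP-1(9-36) on CHO-K1 GLP-1R CRE-bla cells, IBMX present, 30 min, 37 °C, pH 7.4 buffer. Luminescence converted to cAMP via standards; non-linear fit gave EC50 and Emax.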

[1] = dose response of compound in presence of fixed concentration of GLP-1(9-36)
[2] = compound dose response with fixed concentration of GLP-1(9-36)

T1 sequence (P43220 24-463): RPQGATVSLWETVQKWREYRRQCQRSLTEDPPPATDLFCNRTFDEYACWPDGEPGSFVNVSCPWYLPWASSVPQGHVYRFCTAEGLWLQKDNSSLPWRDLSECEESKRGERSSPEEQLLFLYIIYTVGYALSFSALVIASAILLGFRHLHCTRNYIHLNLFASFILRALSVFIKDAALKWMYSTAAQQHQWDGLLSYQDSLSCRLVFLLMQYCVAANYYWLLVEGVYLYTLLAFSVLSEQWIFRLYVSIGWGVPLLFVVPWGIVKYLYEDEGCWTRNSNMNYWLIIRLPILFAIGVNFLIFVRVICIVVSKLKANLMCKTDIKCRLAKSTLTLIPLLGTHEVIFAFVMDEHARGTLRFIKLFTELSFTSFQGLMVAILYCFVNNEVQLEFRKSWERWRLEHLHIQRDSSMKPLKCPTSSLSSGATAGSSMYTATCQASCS
T1 sequence (P01275 100-127 partner limits assumed): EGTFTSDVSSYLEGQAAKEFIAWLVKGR

SMILES	EC50 [1]	EC50 [2]
CCCCCCCOc1ccc(-c2cnc(-c3ccc(C[C@H](NC(=O)c4ccc(C(C)(C)C)s4)C(=O)NC(C(=O)O)C4CCOCC4)cc3)nc2)cc1 (stereo partly shown) [Compound 396]	< 800 nM	–
CC[C@H]1CC[C@H](c2ccc(-c3cnc(-c4ccc(C[C@@H](NC(=O)c5ccc(C(C)(C)C)s5)C(=O)N[C@H](C)C(=O)O)cc4)nc3)cc2)CC1 [Compound 1269]	–	5000 to 10000 nM
CCCCCCCOc1ccc(-c2cnc(-c3ccc(C[C@H](NC(=O)c4ccc(C(C)(C)C)s4)C(=O)N4CCC[C@H]4C(=O)N4CCCC4C(=O)O)cc3)nc2)cc1 (stereo partly shown) [Compound 497]	< 800 nM	–
CC(C)(C)c1ccc(C(=O)N[C@@H](Cc2ccc(-c3ccc(-n4c5ccccc5c5ccccc54)cc3)cc2)C(=O)O)s1 [Compound 1440]	–	5000 to 10000 nM
CCC[C@H]1CC[C@H](C2CCN(c3cnc(-c4ccc(C[C@H](NC(=O)c5ccc(C(C)(C)C)s5)C(=O)N[C@@H](C(=O)O)C(C)C)cc4)nc3)CC2)CC1 [Compound 1449]	–	< 800 nM
CCCCCCCOc1ccc(-c2cnc(-c3ccc(C[C@H](NC(=O)c4ccc(C(C)(C)C)s4)C(=O)NC(C(=O)O)[C@@H](C)c4ccccc4)cc3)nc2)cc1 (stereo partly shown) [Compound 897]	5000 to 10000 nM	–
CCCOc1ccc(C(=O)N[C@@H](Cc2ccc(-c3ncc(-c4ccc(OCCCC(C)C)cc4)cn3)cc2)C(=O)N2CC(C(=O)O)C2)cc1 [Compound 1235]	–	2500 to 5000 nM
CC(C)(C)c1ccc(C(=O)N[C@@H](Cc2ccc(-c3ncc(-c4ccc(OC5CCCCC5)cc4)cn3)cc2)C(=O)NC(C(=O)O)C(O)c2ccccc2)s1 (stereo partly shown) [Compound 938]	5000 to 10000 nM	–
CCCc1ccc(C2CN(c3cnc(-c4ccc(CC(NC(=O)c5ccc(C(C)(C)C)s5)C(=O)N5CC(C(=O)O)C5)cc4)nc3)C2)cc1 (stereo not shown) [Compound 1417]	–	800 to 2500 nM
CCCCCCCOc1ccc(-c2cnc(-c3ccc(C[C@H](NC(=O)c4ccc(C(C)(C)C)s4)C(=O)N4CCC[C@H]4C(=O)O)cc3)nc2)nc1 [Compound 1064]	800 to 2500 nM	–
CC(C)c1ccc(-c2ccc(-c3cnc(-c4ccc(C[C@H](NC(=O)c5ccc(C(C)(C)C)s5)C(=O)O)cc4)nc3)c(F)c2)cc1 [Compound 1359]	–	800 to 2500 nM
CCCCCCCOc1ccc(-c2cnc(-c3ccc(C[C@H](NC(=O)c4ccc(C(C)(C)C)cc4)C(=O)N4CC(C(=O)O)CC4C)cc3)nc2)cc1 (stereo partly shown) [Compound 893]	2500 to 5000 nM	–
CCCCCCCOc1ccc(-c2cnc(-c3ccc(C[C@H](NC(=O)c4ccc(C(C)(C)C)s4)C(=O)N[C@H](C(=O)O)[C@H](C)O)cc3)nc2)cc1 [Compound 646]	< 800 nM	–
CC(C)COc1ccc(-c2cnc(-c3ccc(C[C@H](NC(=O)c4ccc(C(C)(C)C)s4)C(=O)N4CC(C(=O)O)C4)cc3)nc2)cc1 [Compound 789]	2500 to 5000 nM	–
CCCCCCCOc1ccc(-c2cnc(-c3ccc(C[C@H](NC(=O)c4ccc(C(C)(C)C)cc4)C(=O)N[C@@H](CC(=O)NC4CC4)C(=O)O)cc3)nc2)cc1 [Compound 479]	< 800 nM	–
CCCCCCCOc1ccc(-c2cnc(-c3ccc(C[C@H](NC(=O)c4ccc(C(C)(C)C)cc4)C(=O)NCC(C(=O)O)C4CCOCC4)cc3)nc2)cc1 (stereo partly shown) [Compound 555]	2500 to 5000 nM	–
CCCCCCCOc1ccc(-c2cnc(-c3ccc(C[C@H](NC(=O)c4ccc(C(C)(C)C)s4)C(=O)N(CC)CCO)cc3)nc2)cc1 [Compound 969]	2500 to 5000 nM	–
CCCCCCCOc1ccc(-c2cnc(-c3ccc(C[C@H](NC(=O)c4ccc(C(C)(C)C)s4)C(=O)N[C@H](C(=O)O)[C@H](O)c4ccccc4)cc3)nc2)cc1 [Compound 642]	< 800 nM	–
CCCCCCCOc1ccc(-c2cnc(-c3ccc(C[C@H](NC(=O)c4ccc(C(C)(C)C)cc4)C(=O)N[C@H](C)C(=O)O)cc3)nc2)cc1 [Compound 398, (R)-2-((S)-2-(4-(tert-butyl)benzamido)-3-(4-(5-(4-(heptyloxy)phenyl)pyrimidin-2-yl)phenyl)propanamido)propanoic acid]	< 800 nM	–
CC(C)CCCCOc1ccc(-c2cnc(-c3ccc(C[C@H](NC(=O)c4ccc(C(C)(C)C)cc4)C(=O)N[C@H](C)C(=O)O)cc3)nc2)cc1 [Compound 792]	800 to 2500 nM	–
CC(C)COc1cc(-c2cnc(-c3ccc(C[C@H](NC(=O)c4ccc(C(C)(C)C)s4)C(=O)N[C@H](C)C(=O)O)cc3)nc2)cc(Cl)c1F [Compound 1011]	2500 to 5000 nM	–
C[C@@H](NC(=O)[C@H](Cc1ccc(-c2ncc(/C=C/c3ccc(F)cc3)cn2)cc1)NC(=O)c1ccc(C(C)(C)C)s1)C(=O)O [Compound 1249]	–	2500 to 5000 nM
CCCCCCCOc1ccc(-c2cnc(-c3ccc(C[C@H](NC(=O)c4ccc(C(C)(C)C)s4)C(=O)N[C@H](Cc4ccccc4)C(=O)O)cc3)nc2)cc1 [Compound 647]	< 800 nM	–
CCCCCCCOc1ccc(-c2cnc(-c3ccc(C[C@H](NC(=O)c4ccc(CC)s4)C(=O)N4CC[C@H](C(=O)O)C4)cc3)nc2)cc1 [Compound 863]	800 to 2500 nM	–
CCCCCCCOc1ccc(-c2cnc(-c3ccc(C[C@H](NC(=O)c4cnn(C(C)(C)C)c4)C(=O)N4CCC[C@H]4C(=O)O)cc3)nc2)cc1 [Compound 1068]	800 to 2500 nM	–

SMILES	EC50 [1]	EC50 [2]
CCCCCCCOc1ccc(-c2cnc(-c3ccc(C[C@H](NC(=O)c4ccc(C(C)(C)C)cc4)C(=O)N4CCC4C(=O)O)cc3)nc2)cc1 (stereo partly shown) [Compound 565]	800 to 2500 nM	–
CCCCCOc1ccc(-c2ccc(-c3cnc(-c4ccc(C[C@H](NC(=O)c5ccc(C(C)(C)C)s5)C(=O)N[C@H](C)C(=O)O)cc4)nc3)cc2)cc1 [Compound 1309]	–	800 to 2500 nM
CCCCCCCOc1ccc(-c2cnc(-c3ccc(C[C@H](NC(=O)c4ccc(C(C)(C)C)s4)C(=O)N4CC[C@@H]4C(=O)O)cc3)nc2)cc1 [Compound 669]	800 to 2500 nM	–
CCCCCCCOc1ccc(-c2cnc(-c3ccc(C[C@H](NC(=O)c4ccc(C(C)(C)C)cc4OCC)C(=O)N[C@H](C)C(=O)O)cc3)nc2)cc1 [Compound 836]	2500 to 5000 nM	–
CCCCCCCOc1ccc(-c2cnc(-c3ccc(C[C@H](NC(=O)c4ccc(C(C)(C)C)s4)C(=O)NC(C(=O)O)C(O)C(C)C)cc3)nc2)cc1 (stereo partly shown) [Compound 880]	< 800 nM	–
CCCc1ccc(N2CCN(c3cnc(-c4ccc(CC(NC(=O)c5ccc(C(C)(C)C)s5)C(=O)N5CC(C(=O)O)C5)cc4)nc3)C(=O)C2)cc1 (racemic) [Compound 1411]	–	800 to 2500 nM
CCC[C@H]1CC[C@H](C2CCN(c3cnc(-c4ccc(C[C@H](NC(=O)c5ccc(C(C)(C)C)s5)C(=O)N5C6CCC5[C@@H](C(=O)O)C6)cc4)nc3)CC2)CC1 (stereo partly shown) [Compound 1448]	–	5000 to 10000 nM
CCCCCCCOc1ccc(-c2cnc(-c3ccc(C[C@H](NC(=O)c4ccc(C(C)(C)C)cc4)C(=O)N[C@@H](CC(=O)O)C(=O)NCCOC)cc3)nc2)cc1 [Compound 506]	800 to 2500 nM	–
CCCCc1ccc(-c2cnc(-c3ccc(C[C@H](NC(=O)c4ccc(C(C)(C)C)cc4)C(=O)NCCC(=O)O)cc3)nc2)cc1 [Compound 677]	2500 to 5000 nM	–
C[C@@H](NC(=O)[C@H](Cc1ccc(-c2ncc(-c3ccc(-c4ccccc4)cc3)cn2)cc1)NC(=O)c1ccc(C(C)(C)C)s1)C(=O)O [Compound 741]	2500 to 5000 nM	–
CCCCCCCOc1ccc(-c2cnc(-c3ccc(C[C@H](NC(=O)c4ccc(C(C)(C)C)c(OC)c4)C(=O)N[C@H](C)C(=O)O)cc3)nc2)cc1 [Compound 837]	< 800 nM	–
C[C@@H](NC(=O)[C@H](Cc1ccc(-c2ncc(-c3ccc(N4CCOCC4)cc3)cn2)cc1)NC(=O)c1ccc(C(C)(C)C)s1)C(=O)O [Compound 1307]	–	800 to 2500 nM
CC(C)N(C(=O)c1ccc(-c2cnc(-c3ccc(C[C@H](NC(=O)c4ccc(C(C)(C)C)s4)C(=O)N[C@H](C)C(=O)O)cc3)nc2)cc1)C(C)C [Compound 1028]	2500 to 5000 nM	–
CCCCCCCOc1ccc(-c2nnc(-c3ccc(CC(NC(=O)c4ccc(C(C)(C)C)cc4)C(=O)O)cc3F)s2)cc1 (stereo in doubt) [Compound 1552, (S)-2-(4-(tert-butyl)benzamido)-3-(3-fluoro-4-(5-(4-(heptyloxy)phenyl)-1,3,4-thiadiazol-2-yl)phenyl)propanoic acid]	–	800 to 2500 nM
CCCCCCCOc1ccc(-c2cnc(-c3ccc(C[C@H](NC(=O)c4ccc(C(C)(C)C)cc4)C(=O)N[C@@H](CC(=O)NCCN)C(=O)O)cc3)nc2)cc1 [Compound 484]	800 to 2500 nM	–
CCCCCCOC1CN(c2cnc(-c3ccc(C[C@H](NC(=O)c4ccc(C(C)(C)C)s4)C(=O)N[C@H](C)C(=O)O)cc3)nc2)C1 [Compound 1273]	–	5000 to 10000 nM
CCCCCCCOc1ccc(-c2cnc(-c3ccc(CC(NC(=O)c4ccc(C(C)(C)C)s4)C(=O)N[C@@H](CCCCN)C(=O)O)cc3)nc2)cc1 (stereo partly shown) [Compound 427]	800 to 2500 nM	–
CC[C@H]1CC[C@H](c2ccc(-c3cnc(-c4ccc(C[C@H](NC(=O)c5ccc(C6CC6)s5)C(=O)N5CC(C(=O)O)C5)cc4)nc3)cc2)CC1 [Compound 1154]	< 800 nM	–
CC[C@H]1CC[C@H](c2ccc(-c3cnc(-c4ccc(C[C@H](NC(=O)c5ccc(CC(C)C)s5)C(=O)N5CC(C(=O)O)C5)cc4)nc3)cc2)CC1 [Compound 1152]	< 800 nM	–
CCCCCCCOc1ccc(-c2cnc(-c3ccc(C[C@H](NC(=O)c4ccc(C(C)(C)C)cc4)C(=O)N4CC[C@H](N)[C@@H](C(=O)O)C4)cc3)nc2)cc1 [Compound 582]	800 to 2500 nM	–
COc1cc(-c2cnc(-c3ccc(C[C@H](NC(=O)c4ccc(C(C)(C)C)s4)C(=O)N[C@H](C)C(=O)O)cc3)nc2)ccc1OCc1ccccc1 [Compound 999]	2500 to 5000 nM	–
CCCCCCCOc1ccc(-c2cnc(-c3ccc(C[C@H](NC(=O)c4ccc(C(C)(C)C)s4)C(=O)NCC4CC4)cc3)nc2)cc1 [Compound 968]	5000 to 10000 nM	–
CCCCCCCOc1ccc(-c2cnc(-c3ccc(C[C@H](NC(=O)c4ccc(C(C)(C)C)s4)C(=O)N[C@@H](CC(=O)N(C)CCN(C)C)C(=O)O)cc3)nc2)cc1 [Compound 520]	800 to 2500 nM	–
Cc1ccccc1-c1ccc(-c2cnc(-c3ccc(C[C@H](NC(=O)c4ccc(C(C)(C)C)s4)C(=O)N[C@H](C)C(=O)O)cc3)nc2)cc1 [Compound 1023]	2500 to 5000 nM	–
